# From patent publication US8071290B2, “Hypermethylation of GATA-4 and GATA-5 transcription factor genes in cancer” (Johns Hopkins University School of Medicine, priority 2003, dated 2011)
# Marks after values point to notes of the source that are not given here.
# Key:
# Type in all cases: cell-based, human
# [1] = system: Gastric cancer cells, AZ521; experiment: TSA alone or low dose DAC plus TSA, RT-PCR of GATA-4 and GATA-5
# Experimental: (§1) The CRC and Az521 cell lines were grown in DMEM, MEM or McCoy's medium supplemented with 10% fetal bovine serum, penicillin and streptomycin. For demethylation studies, cells were treated daily with […] 5-aza-2′deoxycytidine (DAC; Sigma Chemical Co.; St. Louis Mo.) for 48 hr (41). Az521 and HCT116 cells also were treated with the histone deacetylase inhibitor, TSA (Wako), alone, or with a combination of DAC plus TSA (41; 6). Total RNA was isolated using the TRIZOL reagent (Invitrogen Corp.; Carlsbad Calif.).
# For RT-PCR, 2 μg of total RNA was reverse transcribed using the SUPERSCRIPT reverse transcription kit (Invitrogen); all genes were amplified with multiple cycle numbers (28-35 cycles) for obtaining semi-quantitative differences in their expression levels. Primer pairs for GATA-1 to GATA-6 and for the GATA-5 target genes are shown in Table 2 (see, also, Bai et al., Mol. Carcinog. 28:184-188, 2000, which is incorporated herein by reference). Annealing was performed at the indicated temperatures, and PCR was performed for the indicated number of cycles (Table 2, below). […]
# GATA-4, GATA-5and GATA-6 expression was examined in gastrointestinal cancer cell lines. […] PCR products recognizing unmethylated and methylated CpG sites were analyzed in 2.5% agarose gels stained by ethidium bromide.
# [2] = system: HT29 colon cancer cell line; experiment: DAC treatment, gene expression by RT-PCR in HT29; parameters: key: −: Undetectable level; +: detectable level of expression, by RT-PCR; ++: increased expression level from +basal level; conditions: 5 pM DAC daily for 48 hr
# Experimental: as §1
# (§2) For RT-PCR, 2 μg of total RNA was reverse transcribed using the SUPERSCRIPT reverse transcription kit (Invitrogen); all genes were amplified with multiple cycle numbers (28-35 cycles) for obtaining semi-quantitative differences in their expression levels. Primer pairs for GATA-1 to GATA-6 and for the GATA-5 target genes are shown in Table 2 (see, also, Bai et al., Mol. Carcinog. 28:184-188, 2000, which is incorporated herein by reference). Annealing was performed at the indicated temperatures, and PCR was performed for the indicated number of cycles (Table 2, below). PCR conditions were as follows: first denature, 95° C., 5 min; denature, 95° C., 1 min; anneal, temperature shown in Table 2 (° C.), 1 min; extension, 72° C., 1 min; final extension, 72° C., 10 min.
# (§3) GATA-4, GATA-5and GATA-6 expression was examined in gastrointestinal cancer cell lines. GATA-4, GATA-5 and GATA-6 expression levels were examined by RT-PCR in seven cancer cell lines (colon cancer cell lines RKO, DLD1, HCT116, HT29, LoVo, and SW480; and gastric cancer cell line AZ521) with or without (mock) treatment with 5′-aza-2′-deoxycytidine (DAC) and in normal colonic mucosa (NC) and peripheral blood lymphocytes (PBL). GAPDH expression was used for an internal loading control for the RT-PCR. Gastric cancer cells, AZ521, were treated with low dose DAC alone, TSA alone, or a combination of these two drugs (A/T), or were mock treated, and examined by RT-PCR. GATA-4 and GATA-5 expression were examined in wild type (WT) HCT116 colon cancer cells, and two clones each of these cells in which both alleles of DNA methyltransferase 1 (DNMTI-KO), DNMT 3b (DNMT3b-KO), or both DNMTs were knocked out (21). PCR products recognizing unmethylated and methylated CpG sites were analyzed in 2.5% agarose gels stained by ethidium bromide.
# [3] = system: AZ521 gastric cancer cell line; experiment: DAC treatment, gene expression by RT-PCR in AZ521; parameters: key to GATA-4 expression (Exp, A = DAC treatment) / GATA-5 expression (Exp, A = DAC treatment) / GATA-6 expression (Exp, A = DAC treatment) / TFF1 expression (Exp, A = DAC treatment) / TFF2 expression (Exp, A = DAC treatment) / TFF3 expression (Exp, A = DAC treatment) / Inhibin α expression (Exp, A = DAC treatment) / Dab2 expression (Exp, A = DAC treatment): −: Undetectable level; +: detectable level of expression, by RT-PCR; ++: increased expression level from +basal level
# Experimental: as §1, §2, §3
# [4] = system: DLD1 colon cancer cell line; experiment: DAC treatment, gene expression by RT-PCR in DLD1; parameters: key: −: Undetectable level; +: detectable level of expression, by RT-PCR; ++: increased expression level from +basal level; conditions: 5 pM DAC daily for 48 hr
# Experimental: as §1, §2, §3
# [5] = system: colon cancer cell lines RKO, DLD1, HCT116, HT29, LoVo, and SW480; and gastric cancer cell line AZ521; experiment: DAC treatment of the seven cancer cell lines, RT-PCR
# Experimental: as §1, §2
# as §3, with “GATA-4 and GATA-5 expression were examined in wild type (WT) HCT116 colon cancer cells, and two clones each of these cells in which both alleles of DNA methyltransferase 1 (DNMTI-KO), DNMT 3b (DNMT3b-KO), or both DNMTs were knocked out (21).” left out
# [6] = system: RKO colon cancer cell line; experiment: DAC treatment, gene expression by RT-PCR in RKO; parameters: key to GATA-5 expression (Exp, A = DAC treatment) / GATA-6 expression (Exp, A = DAC treatment) / TFF1 expression (Exp, A = DAC treatment) / TFF2 expression (Exp, A = DAC treatment) / TFF3 expression (Exp, A = DAC treatment) / Inhibin α expression (Exp, A = DAC treatment) / Dab2 expression (Exp, A = DAC treatment) / GATA-4 expression (Exp, A = DAC treatment): −: Undetectable level; +: detectable level of expression, by RT-PCR; ++: increased expression level from +basal level
# Experimental: as §1, §2, §3
# [7] = system: SW480 colon cancer cell line; experiment: DAC treatment, gene expression by RT-PCR in SW480; parameters: key: −: Undetectable level; +: detectable level of expression, by RT-PCR; ++: increased expression level from +basal level; conditions: 5 pM DAC daily for 48 hr
# Experimental: as §1, §2, §3
# [8] = system: HCT116 colon cancer cell line; experiment: DAC treatment, gene expression by RT-PCR in HCT116; parameters: key to GATA-5 expression (Exp, A = DAC treatment) / GATA-6 expression (Exp, A = DAC treatment) / TFF1 expression (Exp, A = DAC treatment) / TFF2 expression (Exp, A = DAC treatment) / TFF3 expression (Exp, A = DAC treatment) / Inhibin α expression (Exp, A = DAC treatment) / Dab2 expression (Exp, A = DAC treatment) / GATA-4 expression (Exp, A = DAC treatment): −: Undetectable level; +: detectable level of expression, by RT-PCR; ++: increased expression level from +basal level
# Experimental: as §1, §2, §3
# [9] = system: LoVo colon cancer cell line; experiment: DAC treatment, gene expression by RT-PCR in LoVo; parameters: key: −: Undetectable level; +: detectable level of expression, by RT-PCR; ++: increased expression level from +basal level; conditions: 5 pM DAC daily for 48 hr
# Experimental: as §1, §2, §3
# [10] = AZ521, 5 pM DAC daily for 48 hr, RT-PCR
# [11] = 5 pM DAC daily for 48 hr, RT-PCR
# [12] = HCT116, 5 pM DAC daily for 48 hr, RT-PCR
smiles,measurement,setting,value
CC(/C=C/C(=O)NO)=C\[C@@H](C)C(=O)c1ccc(N(C)C)cc1 [TSA],reactivation of the silenced GATA-4 and GATA-5 genes,[1]; TSA alone,failed to reactivate
same,reactivating expression of the silenced GATA-4 and GATA-5 genes,[1]; TSA applied with a low dose of DAC,synergistic
"Nc1ncn([C@H]2C[C@H](O)[C@@H](CO)O2)c(=O)n1 [DAC, 5-aza-2′-deoxycytidine]","Dab2 expression (Exp, A = DAC treatment)",[2],+
same,"GATA-4 expression (Exp, A = DAC treatment)",[2],+
same,"GATA-5 expression (Exp, A = DAC treatment)",[2],+
same,"GATA-6 expression (Exp, A = DAC treatment)",[2],+
same,"TFF1 expression (Exp, A = DAC treatment)",[2],++
same,"TFF2 expression (Exp, A = DAC treatment)",[2],+
same,"TFF3 expression (Exp, A = DAC treatment)",[2],+
same,"Dab2 expression (Exp, A = DAC treatment)",[3]; [10],+
same,"GATA-4 expression (Exp, A = DAC treatment)",[3]; [10],+
same,"GATA-5 expression (Exp, A = DAC treatment)",[3]; [10],+
same,"GATA-6 expression (Exp, A = DAC treatment)",[3]; [10],+
same,"Inhibin α expression (Exp, A = DAC treatment)",[3]; [10],++
same,"TFF1 expression (Exp, A = DAC treatment)",[3]; [10],+
same,"TFF2 expression (Exp, A = DAC treatment)",[3]; [10],−
same,"TFF3 expression (Exp, A = DAC treatment)",[3]; [10],+
same,TFF2 re-expression after DAC treatment,[3]; Az521,did not re-express
same,"Dab2 expression (Exp, A = DAC treatment)",[4],+
same,"GATA-4 expression (Exp, A = DAC treatment)",[4],+
same,"GATA-5 expression (Exp, A = DAC treatment)",[4],+
same,"GATA-6 expression (Exp, A = DAC treatment)",[4],+
same,"Inhibin α expression (Exp, A = DAC treatment)",[4],+
same,"TFF1 expression (Exp, A = DAC treatment)",[4],++
same,"TFF2 expression (Exp, A = DAC treatment)",[4],+
same,"TFF3 expression (Exp, A = DAC treatment)",[4],+
same,"re-expression of each basally silent GATA gene, except GATA-1","[5]; DAC treatment, RT-PCR",re-expressed
same,"low basal expression of TFF1, TFF3, inhibin α after DAC","[5]; DAC, in many instances",further increased
same,"activation of each downstream gene (TFF1, TFF2, TFF3, inhibin α, Dab2)","[5]; DAC, virtually every cell line in which the gene lacked basal expression",activated
same,TFF2 re-expression after DAC treatment,[6],did not re-express
same,"Dab2 expression (Exp, A = DAC treatment)",[6]; [11],+
same,"GATA-4 expression (Exp, A = DAC treatment)",[6]; [11],+
same,"GATA-5 expression (Exp, A = DAC treatment)",[6]; [11],+
same,"GATA-6 expression (Exp, A = DAC treatment)",[6]; [11],+
same,"Inhibin α expression (Exp, A = DAC treatment)",[6]; [11],+
same,"TFF1 expression (Exp, A = DAC treatment)",[6]; [11],+
same,"TFF2 expression (Exp, A = DAC treatment)",[6]; [11],−
same,"TFF3 expression (Exp, A = DAC treatment)",[6]; [11],+
same,Dab2 reactivation following DAC treatment,[6]; gene basally silent,reactivated
same,"Dab2 expression (Exp, A = DAC treatment)",[7],+
same,"GATA-4 expression (Exp, A = DAC treatment)",[7],+
same,"GATA-5 expression (Exp, A = DAC treatment)",[7],+
same,"GATA-6 expression (Exp, A = DAC treatment)",[7],+
same,"Inhibin α expression (Exp, A = DAC treatment)",[7],++
same,"TFF1 expression (Exp, A = DAC treatment)",[7],+
same,"TFF2 expression (Exp, A = DAC treatment)",[7],+
same,"TFF3 expression (Exp, A = DAC treatment)",[7],+
same,TFF2 activation by DAC,"[8]; HCT116, TFF2 promoter present",readily activated
same,"Dab2 expression (Exp, A = DAC treatment)",[8]; [12],+
same,"GATA-4 expression (Exp, A = DAC treatment)",[8]; [12],+
same,"GATA-5 expression (Exp, A = DAC treatment)",[8]; [12],+
same,"GATA-6 expression (Exp, A = DAC treatment)",[8]; [12],+
same,"Inhibin α expression (Exp, A = DAC treatment)",[8]; [12],+
same,"TFF1 expression (Exp, A = DAC treatment)",[8]; [12],+
same,"TFF2 expression (Exp, A = DAC treatment)",[8]; [12],+
same,"TFF3 expression (Exp, A = DAC treatment)",[8]; [12],+
same,"Dab2 expression (Exp, A = DAC treatment)",[9],+
same,"GATA-4 expression (Exp, A = DAC treatment)",[9],++^4)
same,"GATA-5 expression (Exp, A = DAC treatment)",[9],++
same,"GATA-6 expression (Exp, A = DAC treatment)",[9],+
same,"Inhibin α expression (Exp, A = DAC treatment)",[9],++
same,"TFF1 expression (Exp, A = DAC treatment)",[9],++
same,"TFF2 expression (Exp, A = DAC treatment)",[9],+
same,"TFF3 expression (Exp, A = DAC treatment)",[9],++
